{
  "source": "patent US8852895B2",
  "about": "“Macrocyclic derivative and assemblies formed therefrom” (University College Dublin, National University of Ireland, priority 2008, dated 2014)",
  "key": {"Cos-7 cells": {"system": "Cos-7 cells", "details": "cyclodextrin:DNA mass ratios of 10, 15 and 20, 1 μg DNA, FIG. 3", "procedure": "The plasmid DNA used for the transfection studies was the pGL3luc plasmid. This plasmid contains the gene that encodes for the firefly luciferase enzyme which allows measurement of gene expression levels in cells.\nThe cyclodextrin was dissolved in chloroform to a concentration of 1 mg/mL. A slow stream of nitrogen was passed over the solution to remove solvent. The cyclodextrin was then reconstituted with a plasmid DNA solution to give a final cyclodextrin concentration of 1 mg/mL. The DNA concentration used depended on the ratio of cyclodextrin:DNA being studied. This cyclodextrin:DNA solution was then sonicated for 1 hour to facilitate size reduction.\nCos-7 cells were seeded at a density of 30,000 cells per well and grown in 24 well plates in media for 20-24 hours. Prior to transfection studies, the cells were rinsed with serum-free media and then incubated in serum-free media for 1 hour. […] DNA complexes were prepared in a final volume of 100 μL so that 1 μg of DNA complexed with the vectors at the desired mass ratio. This was then added to 400 μL of serum-free media and cells which was left at 37° C. for 4 hours. […] Luciferase expression was then determined using a luciferase assay kit (Promega USA) and results were expressed as Relative Light Units (RLU) of luciferase per pg of protein (Bradford assay). […]"}, "[1]": {"details": "DLS, 0.1 mg/mL cyclodextrin in water", "protocol": "A 50 μL aliquot of the stock solution (0.5 mg of cyclodextrin) was transferred to a glass vial. The solvent was evaporated slowly in order to form a thin film of cyclodextrin on the surface of the glass. Millipore water (5 mL) was then used to hydrate the film giving a cyclodextrin solution with a concentration of 0.1 mg/mL. The vial was capped and placed in an oven for 90 minutes at 60° C. The cyclodextrin solutions were then filtered through a 0.45 μm Gelman Acrodisk syringe filter into a fluorimeter cuvette to remove any particles and macro aggregates. DLS investigations of these solutions were carried out using a Malvern Autosizer 4700 equipped with an Innova 70 laser (488 nm) and a photomultiplier at an angle of 90°."}},
  "note": "Values joined by “and” are separate entries in the source; they are usually repeats but may differ in a detail not shown here. Identical values can stand only once. Like-named read-outs stand apart in the source and are kept apart here.",
  "data": [
    {"compound": "CCCCCCCCOC(=O)CCSCCCO[C@H]1[C@H]2O[C@H]3[C@H](O)[C@@H](OCCCSCCC(=O)OCCCCCCCC)[C@@H](O[C@H]4[C@H](O)[C@@H](OCCCSCCC(=O)OCCCCCCCC)[C@@H](O[C@H]5[C@H](O)[C@@H](OCCCSCCC(=O)OCCCCCCCC)[C@@H](O[C@H]6[C@H](O)[C@@H](OCCCSCCC(=O)OCCCCCCCC)[C@@H](O[C@H]7[C@H](O)[C@@H](OCCCSCCC(=O)OCCCCCCCC)[C@@H](O[C@H]8[C@H](O)[C@@H](OCCCSCCC(=O)OCCCCCCCC)[C@@H](O[C@@H]([C@@H]1O)[C@@H](CSCCN)O2)O[C@@H]8CSCCN)O[C@@H]7CSCCN)O[C@@H]6CSCCN)O[C@@H]5CSCCN)O[C@@H]4CSCCN)O[C@@H]3CSCCN.O=C(O)C(F)(F)F", "note": "[heptakis[6-(2′-aminoethylthio)-2-O-octyloxycarbonylethylsulfanylpropyl]-β-cyclodextrin trifluoroacetic acid salt]", "values": [
      {"measurement": "transfection (luciferase expression) compared with naked DNA and DOTAP", "setting": "Cos-7 cells", "result": "greater than DNA on its own and greater than DOTAP"},
      {"measurement": "Zaverage (nm)", "setting": "[1]; Day 1, filtered 0.45 μm, angle 90°, trifluoroacetic acid salt", "result": "76 nm and 85 nm"},
      {"measurement": "Polydispersity", "setting": "[1]; Day 7", "result": 0.251},
      {"measurement": "Zaverage (nm)", "setting": "[1]; Day 7", "result": 82, "unit": "nm"}
    ]}
  ]
}
